In patent US20110064694A1, “ANTI-HEPATITIS C ACTIVITY OF MESO-TETRAKIS-PORPHYRIN ANALOGUES” (YALE UNIVERSITY, priority 2009, published 2011):
Like-named read-outs stand apart in the source and are kept apart here.

Experiments:
[1] = tested on: mitochondrial potential of Huh-luc/neo-ET cells; conditions: up to 1 M for 9 days, compared with mock-treated control
Description: We treated Huh-luc/neo-ET cells with up to 1 µM of compound 6 for 9 days, during which the media were replenished every 3 days and the cells were passaged once. Live cells were stained with the ratiometric indicator JC-1 (Invitrogen) in order to measure the mitochondrial potential using confocal microscopy.

[2] = tested on: HCV genotype 1b (Con 1 isolate) subgenomic replicon; assay: microbe, parasite or virus in culture; format: cell-based, Hepatitis C virus
Description: Cells. HCV genotype 1b (Con 1 isolate) subgenomic replicon cell line with luciferase reporter (Huh-luc/neo-ET) was kindly provided by Ralf Bartenschlager from the University of Heidelberg (37). Huh-luc/neo-ET cells were cultured in Dulbecco's modified Eagle medium (DMEM , supplemented with 10% fetal bovine serum (FBS), 1 mM nonessential amino acids, and 250 μg/ml of G418 (Invitrogen). Genotype 2a (JFH-I isolate) subgenomic replicon cells YSGR-JFH were cultured in DMEM containing 10 To fetal calf serum, 1 mM nonessential amino acids and 400 μg/ml G418 (31). An additional genotype 1b (Conl) replicon cell line (4291BBix) was cultured in similar media but with 3 μg/ml blasticidin (22).
Determination of antiviral activities. Ff-luciferase reporter activity was used to monitor the replication of HCV replicons in Huhluc/neo-ET cells free from G418. Replicon cells were seeded at the density of 5×10^3 cells per well in 96-well plates. The following day, replicon cells were incubated in duplicates with DMSO or serially diluted tetraphenylporphyrin (TPP) analogues at 37″C. 72 hrs after co-incubation, cells were lysed with ice-cold passive lysis reagent after PBS wash, and the luciferase activity was measured with the luciferase assay kit (Promega) and Tecan FARCyte luminometer (GE Healthcare) following the manufacturers' descriptions. The relative light units (RLU) were adjusted as percentage readings of the compound-free controls and the 50% effective concentration (EC50) was determined from dose-effect curve by nonlinear regression analysis using Origin 6.1 (OriginLab Software). TPP analogues were also screened in vitro against HIV-I IIIB and HBV as previously described (26,41). Briefly 1×10^3 MT-2 cells per well were exposed in triplets to 0.1TC1D50/cell (50% of the tissue culture infectious dose) of HIV-1 IIIB and cultured in the presence of compounds. The EC50 values were estimated by MTT-based colorimetric quantitation of viral CPE after 5 days. Anti-HBV activities were evaluated in 2.2.15 cells by means of Southern DNA hybridization.

[3] = tested on: mitochondrial DNA content of CEM cells; assay: Mitochondrial DNA toxicity, slot blot of CEM cell lysates; format: cell-based
Description: Quantitation of mitochondrial DNA content was performed as previously published (18). Briefly, CEM cell lysates were spotted onto Hybond paper using the Miliford II slot blot apparatus (Schleicher & Schuell). MTDNA was detected with mtDNA-specific probe and then reprobed with Alu probe for internal control. The autoradiographic bands were quantified on scanning densitometer (Molecular Dynamics).

CEM cells = assay: Cytotoxicity in CEM cells; conditions: read-out: Cytotoxicity CC50 CEM
cytochrome c = cytochrome c (Equus caballus, UniProt P00004); conditions: read-out: Kd, binding to cyt c; cited from earlier work
[4] = tested on: HCV genotype 1b (Con1) replicon
Description: Quantification of HCV RNA and NS5A protein. Huhluc/neo-ET cells were seeded at the density of 1×10^5 cells per well in 6-well plate and treated with either DMSO control or up to 250 nM of compound 6. Cells were harvested after 24, 48, or 72 hrs of incubation and subjected to luciferase activity assay, RNA quantification and immunoblotting. Results were averaged from three independent repeats. Luciferase activity assay was done in triplets per experiment as aforementioned and RLU reading was normalized against the total protein level per sample determined from Bradford assay. Total RNA was isolated using RNeasy Mini Kit (QIAGEN) and the RNA concentrations were measured by spectrophotometry (GE Healthcare) followed by dilution into 50 ng/μL. Replicon RNA was quantitated in triplicates by amplifying the HCV 5′UTR using one-step real-time reverse transcriptase polymerase chain reactions (qRT-PCR). Each 20 μL replicate contained 100 ng of total RNA, 100 nM probe (6FAM-5′-[…]-3′-MGBNFQ, Applied Biosystems) and 200 nM forward and reverse primers (5′-[…]-3′, and 5′-[…]-3′ respectively, Yale University W.M. Keck Facility) (21), together with iScript reverse transcriptase and reaction mix for one-step RT-PCR (Bio-Rad Laboratories). Reactions were run in the iCycler iQ RealTime thermocycler detection system (Bio-Rad Laboratories) as follows: 10 min at 50° C., 5 min at 95° C., followed by 42 cycles at 95° C. for 15 sec and 60° C. for […]. Results were normalized against the β-actin mRNA levels in each sample (20).

[5] = tested on: HCV genotype 1b (Con1) replicon; assay: Effect of serum concentration on anti-HCV activity, luciferase assay in Huh-luc/neo-ET cells; format: cell-based, Hepatitis C virus; conditions: for EC50: 72 hrs
Description: Cells were harvested after 72 hrs for luciferase activity assays.
Huh-luc/neo-ET cells were incubated with compound 1, 4 or 6 for 72 hrs and the anti-HCV activity was evaluated by measuring the reduction of reporter luciferase activities.

Huh-7 cells = assay: Cytotoxicity in Huh-7 cells (methylene blue or CellTiter-Glo); format: cell-based; conditions: Huh-7 cells, 3 days; read-out: Cytotoxicity CC50 Huh-7
Description: Determination of cytotoxicity and mitochondrial DNA toxicity. Exponentially growing Huh-7 cells were seeded at a density of 1×10^4 cells per well in a 24-well plate and incubated with TPP analogues for 3 days. Cells were fixed and stained with 0.5% methylene blue in 50% ethanol followed by extensive washing. After the plates were air dried, cells were solubilized in 1% sarkosyl and cell growth was determined from the extent of absorption by spectrophotometric measurements at 595 nm (Biotek Instruments). For compounds whose dark color interfered with 595-nm reading, cytotoxicity was measured by the CellTiter-Glo luminesecent cell viability assay following manufacturer's description (Promega). Cytotoxicity in MT-2 cells was determined from colorimetric quantitation of uninfected MT-2 cells after 5 days of coincubation.

Chain of cytochrome c (P00004 2-105 limits assumed): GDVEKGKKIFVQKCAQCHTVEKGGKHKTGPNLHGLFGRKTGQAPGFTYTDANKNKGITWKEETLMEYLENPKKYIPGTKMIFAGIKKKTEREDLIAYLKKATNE

O=C(O)c1cc(C(=O)O)cc(-c2ccc(-c3c4nc(c(-c5ccc(-c6cc(C(=O)O)cc(C(=O)O)c6)cc5)c5ccc([nH]5)c(-c5ccc(-c6cc(C(=O)O)cc(C(=O)O)c6)cc5)c5nc(c(-c6ccc(-c7cc(C(=O)O)cc(C(=O)O)c7)cc6)c6ccc3[nH]6)C=C5)C=C4)cc2)c1 [Compound 6, Meso-teftakis-(3,5-dicarboxy-4,4′-biphenyl)porphyrin]
effect on mitochondrial potential [1]: did not affect the mitochondrial potential
selective index in culture (CC50/EC50) ([2]; CC50 in naïve Huh-7 cells / EC50): over 2000
EC50 ([2]; HCV replicons in vitro, read-out: anti-HCV EC50): 0.024 µM
EC50 ([2]; Huh-luc/neo-ET, 72 hrs, luciferase, read-out: Antiviral Activity EC50 HCV): 0.024 ± 0.0051 µM
EC50 ([2]; Table 3, metal M in porphyrin core, read-out: EC50 anti-HCV activity, metallation of porphyrin core of compound 6): 0.019 ± 0.0052 µM
improvement in anti-HCV EC50 over compound 2 ([2]; relative to lead compound 2): 75 fold
EC50 ([2]; unit inferred, read-out: EC50 against HCV genotype 1b Conl replicons): 0.024 ± 0.005 µM
effect on amount of mitochondrial DNAs [3]: did not alter the amount of mitochondrial DNAs
IC50 ([3]; CEM cells, read-out: Mitochondrial DNA Toxicity IC50 CEM): > 50 µM
CC50 (CEM cells): > 50 µM
Kd (cytochrome c): 1.5 ± 0.17 µM
improvement of 72-hr EC50 compared with 24-hrs incubation, luciferase ([4]; 72 hr vs 24 hr): over 3 fold
EC50 ([4]; read-out: 24-hr EC50, replicon luciferase activity, 24 hrs incubation): 0.0578 µM
EC50 ([4]; read-out: 48-hr EC50, replicon luciferase activity, 48 hrs incubation): 0.0192 µM
EC50 ([4]; read-out: 72-hr EC50, replicon luciferase activity, 72 hrs incubation): 0.0176 µM
EC50 ([5]; 5% FBS, read-out: EC50 5% FBS): 0.013 ± 0.003 µM
EC50 ([5]; 40% FBS, read-out: EC50 40% FBS): 0.069 ± 0.011 µM
Fold Change in EC50 5% FBS ([5]; EC50 at 5% FBS as one fold): 1.00
EC50 ([5]; extrapolation of the plot of EC50 vs serum amount, read-out: EC50 0% FBS (Theoretical)): 0.0065 µM
EC50 ([5]; read-out: EC50 10% FBS, 10% FBS): 0.024 ± 0.005 µM
EC50 ([5]; read-out: EC50 20% FBS, 20% FBS): 0.039 ± 0.005 µM
Fold Change in EC50 10% FBS ([5]; relative to EC50 at 5% FBS): 1.92 ± 0.22
Fold Change in EC50 20% FBS ([5]; relative to EC50 at 5% FBS): 3.20 ± 0.96
Fold Change in EC50 40% FBS ([5]; relative to EC50 at 5% FBS): 5.56 ± 0.85
CC50 (Huh-7 cells): > 50 µM
